Reference: a melting point compilation (Tetko et al.; mined from patent text by program, amines drawn as free bases though some values may be those of a salt)

SMILES	melting point
NC(=O)CCNC(=O)c1cccc(-c2cccc3oc(Cc4cccc(C(F)(F)F)c4)cc23)c1	155 to 156 °C
O=C(O)c1ccc(C(=C2SCCCS2)c2ccccc2)cc1	261 to 262 °C
Cc1nc(Cl)c([N+](=O)[O-])c(NCC(C)(C)NC(=O)OC(C)(C)C)c1C	97 to 100 °C
CCCc1c(OCCOc2cccc(C(=O)O)c2)ccc(C(C)=O)c1O	155 °C
CCOC(=O)C(C)Oc1ncn(-c2ccc(OC)cc2)n1 (stereo unspecified)	62 to 64 °C
COc1cc2c(cc1O)c(-c1cc3cccnc3n1S(=O)(=O)c1ccc(C)cc1)cn2C	211 to 214 °C
CCCC(CCC)Nc1cc(C(=O)O)ccc1N1C(=O)CCC1(CO)CO	227 to 229 °C
CC(Oc1ccc(Oc2cnc3cc(Cl)ccc3n2)cc1)C(=O)Nc1ccc(OC(F)(F)CF)cc1 (stereo unspecified)	137 to 140 °C
Cn1cncc1C(O)(c1ccc(Cl)cc1)c1ccc2c(c1)C(c1cccc(Cl)c1)OCC(=S)N2 (stereo unspecified)	> 300 °C
CN(c1cccc2cc(-c3nccs3)[nH]c12)S(=O)(=O)c1ccsc1COCC(=O)O	189 °C
COc1cc2c(c3c1OC(C)(C)C3)C(c1cccc(N(C(C)=O)c3cccnc3)c1)=NC(C)(C)C2	157 to 158 °C
O=Cc1cc(Cl)cc(C=O)n1	163 °C
COc1ccc2c(c1OC)CN(c1nc(N)c3cc(OC)c(OC)c(OC)c3n1)CC2	190 °C
O=C(O)Cc1ccc(-n2cnc3cnc4ccccc4c32)cc1	236 to 240 °C
NNc1cccc(-c2ccccn2)n1	69 to 70 °C
Cc1c(C(F)(F)F)nc[nH]c1=O	175 to 176 °C
COCCNc1cc(Sc2ccc(Cl)cc2)nc(-c2ccc(OC)cc2)n1	117 to 118 °C
CCOC(=O)c1sc2c(Br)cccc2c1C	67 to 70 °C
Cc1cc(C(O)C[N+](=O)[O-])cc(C)c1Oc1ccc([N+](=O)[O-])c(Nc2ccc(C#N)cc2)n1 (stereo unspecified)	230 to 234 °C
CS(=O)(=O)Nc1cnn(CCCCN2CCN(c3ncccn3)CC2)c1	132 °C
Cc1cc(C2(C(F)(F)F)CN=C(c3ccc(Cl)cc3)S2)ccc1NC(=O)c1cccc(I)c1C(=O)NC(C)C (stereo unspecified)	121 to 123 °C
Cc1nn(C(C)(C)C)c(N)c1C(N)=O	195 to 196 °C
O=C(O)c1cc2cc(Cl)c(Cl)cc2nc1N[C@@H](Cc1ccccc1)C(=O)O	141 to 143 °C
O=c1[nH]c2cc([N+](=O)[O-])ccc2cc1P(=O)(O)O	> 300 °C
N#Cc1cnc2c(c1Nc1ccc(Oc3ccccc3)cc1)C=C1N=CN=C1C2	> 270 °C
CC(C)(C)C(=O)Oc1nc(-c2ccccc2)sc1-c1ccccc1	134 to 136 °C

SMILES	melting point
Cc1ccc(S(=O)(=O)Oc2cccnc2)cc1	76 to 78 °C
CN(C)CCCCNC(=O)c1cccc(-c2nnc(CSCCOc3ccccc3)o2)c1	38 to 42 °C
CCOC(=O)c1cnn(C)c1C(=O)Nc1ccn2nc(-c3cccc(F)n3)nc2c1	290 °C
CC1(C)CS(=O)(=O)CC(C)(C)N1Br	150 °C
COc1cc(Cc2cnc(CCCOc3cccc(CN4CCCCC4)c3)[nH]c2=O)ccn1	93 to 94 °C
N#Cc1ccccc1Cn1cc(-c2ccnc(Cl)c2)n(-c2ccc(F)cc2)c1=O	109 °C
Cc1cc2c(cc1C)C(=O)C(C#N)C2=O	209 to 210 °C
CN1CCN(c2cccc3c2C[C@H](NC(=O)c2ccc(N4CCSCC4)cc2)CC3)CC1	190 to 191 °C
Cn1nc2nnsc2c1C#N	111 to 114 °C
COC(=O)C(=Cc1cccc(O)c1)NC(C)=O	115 °C
CC(Oc1ccc(-c2cc(C(F)(F)F)cc(S(N)(=O)=O)c2)cc1)C(O)CCc1cccnc1 (stereo unspecified)	57 to 59 °C
CC12CC(N3CCC(O)CC3)C(O)CC1CCC1C2CCC2(C)C(O)C(N3CCC(O)CC3)CC12 (stereo unspecified)	248 to 250 °C
CC(C)(C)NC(=O)OC1OCN(c2cccc(C(F)(F)F)c2)C1=O (stereo unspecified)	125 to 126 °C
CCC(O)CN1CCC(C)C(c2ccc(Cl)cc2)=N1 (stereo unspecified)	90.5 to 91.5 °C
CN1CCC(C2(O)c3ccccc3C=Cc3ccc(C#N)cc32)CC1 (stereo unspecified)	219 to 221 °C
COc1ccc2c(c1)COc1ccc(CC(=O)O)cc1C2=O	163 to 165 °C
COc1ccc(-c2c(C)c3ccc(O)cc3oc2=O)c(O)c1	213 to 214 °C
O=C1Nc2cccnc2N(C(=O)N2CCC(CCN3CCCCC3)CC2)c2ccccc21	178 to 180 °C
Cc1c(-c2ccc(OC(C)C)cc2)n(Cc2ccc(OCCN3CCCCC3)cc2)c2ccc(O)cc12	120 to 125 °C
Cc1ccsc1C(C)N(O)C(N)=O (stereo unspecified)	131 °C
CN1CCC=C(c2nnn(C)n2)C1	86 to 87 °C
COc1cc(C(CC(=O)O)N2Cc3ccccc3C2=O)cc(OC)c1OC (stereo unspecified)	162 to 164 °C
COc1ccc(CCCCOc2cc(-c3nc4cc(C(=O)O)ccc4[nH]3)ccc2OC)cc1	167 to 169 °C
CCC(O)=C1SC(=S)N(c2ccc(Cl)cc2)C1=O	145 to 149 °C
O=C1CCCC(C(=O)c2ccc(Cc3ccc(F)cc3)o2)=C1O	133 to 134 °C
CC(C)c1c(NC(=O)OCc2ccccc2)nc(-c2ccc(F)cc2)n1CCC1CC(O)CC(=O)O1 (stereo unspecified)	86 to 90 °C

SMILES	melting point
CC(C)(C)OC(=O)N1CCN(Cc2ccc3c(c2)-c2[nH]nc(-c4ccsc4)c2C3)CC1	218 to 220 °C
CCOC(=O)C(=NO)c1cccc(C(=O)c2ccccc2)c1	109 to 110 °C
COc1ccsc1C(=O)C1C(=O)N(C(N)=O)c2ccc(Cl)cc21 (stereo unspecified)	86 to 88 °C
CNC(=O)N(OC(=O)OC)c1ccc(Cl)cc1	145 to 146 °C
CS(=O)(=O)c1ccc(-c2cc(CBr)nn2-c2ccc(Cl)cc2)cc1	60 to 64 °C
O=C(Nc1ccc(-c2c[nH]c(=O)cn2)cc1)c1cccc([N+](=O)[O-])c1	> 250 °C
Cc1ccsc1C(=O)NCCO[N+](=O)[O-]	74 to 76 °C
CC(=O)N1CCc2ccc(/C=C/CCN3CCC(c4ccc(Cl)cc4)CC3)cc2CC1	153 to 155 °C
O=C(OCc1ccccc1)c1cc(C(=O)OCc2ccccc2)[nH]n1	120 °C
O=C(Nc1ccc(Cl)cc1)Nc1c(C(O)(C(F)(F)F)C(F)(F)F)ccc2ccccc12	210 to 212 °C
OCc1cccc(-c2cc3nccnc3[nH]2)c1	225 to 226 °C
O=c1c2c[nH]cc(-c3ccccc3)c-2nn1-c1ccccc1	280 to 285 °C
COc1c(Nc2ncc3ccc(-c4ccccc4N(C)S(C)(=O)=O)n3n2)cccc1C1CCN(C)CC1	92 to 101 °C
CN1CC(CO)C=C2c3cccc4[nH]c(Br)c(c34)CC21 (stereo unspecified)	193 °C
COc1ccc(Nc2ccc(Nc3ncnc4cc(-c5ccc(OC)cc5)sc34)cc2)cc1	159 to 169 °C
O=Cc1ccc(OCc2coc(-c3ccccc3)n2)cc1	94 to 96 °C
CN(C)C(=O)c1ccc(CNC(=O)C2Cc3ccccc3N2S(=O)(=O)c2ccc(-c3ccccc3C(F)(F)F)cc2)cc1 (stereo unspecified)	105 to 106 °C
Nc1ccc(C2CCSCC2)cc1	103 to 106 °C
COC(=O)C1=C(O)C(OC)(OC)C(O)=C(C(=O)OC)C1	143 to 144 °C
Nc1cc(=O)n(-c2ccccc2)[nH]1	218 to 219 °C
CC1CC(N)=NN1c1cccc(Cl)n1 (stereo unspecified)	105 to 107 °C
COc1ccc(CN2CCc3cc(O)ccc3C2)c(OC)c1	149 to 152 °C
COC(=O)C(C)Oc1ccc(Oc2ccc(Cl)cc2F)cc1 (stereo unspecified)	55 to 57 °C
O=C1c2ccccc2CN1CSc1ccncc1	131 to 132 °C
CC1(C)CC(=O)c2cc(O)ccc2O1	158 °C
CN1C(=O)[C@H](NC(=O)CCC2CCCCC2)[N+]([O-])=C(c2ccccc2)c2ccccc21	222 to 224 °C

SMILES	melting point
COC(=O)NC(=S)Nc1ccon1	165 to 167 °C
CC1OC(n2cc(F)c(NC(=O)c3ccc(Cl)cc3)nc2=O)C(O)C1O (stereo unspecified)	142 to 146 °C
O=C(O)Cc1cn(-c2ccccc2)c2ccccc12	131 to 135 °C
c1ccc(N(c2ccccc2)c2ccsc2)cc1	79 to 82 °C
COc1cc(C(=O)c2nc(NC(=O)C(F)(F)F)c3ccccn23)ccc1[N+](=O)[O-]	228 °C
CCCCC(C(C)C)C(CN)CC(=O)O (stereo unspecified)	160 to 170 °C
CCCc1nn(C)c2c(=O)n(CCNc3ccc(SC(C)(C)C(=O)OCC)cc3)c(CC)nc12	105 to 107 °C
N#Cc1cc2[nH]c(=O)c(=O)n(C3CCCCC3)c2c2ccccc12	> 300 °C
OCCON=Cc1ccccn1	45 °C
CCCCc1nc(O)cc(CCl)n1	102 to 104 °C
Cn1ccc2ncnc(Oc3ccc(NC(=O)Nc4cccc(OC(F)(F)F)c4)c(Cl)c3)c21	171 to 174 °C
O=C(Nc1ccc(C[C@H](NS(=O)(=O)NCC2CCCCC2)C(=O)O)cc1)c1c(Cl)cncc1Cl	196 °C
Nc1nc(NC2CCc3ccccc32)c2ncn(C3OC(CO)C(O)C3O)c2n1 (stereo unspecified)	143 to 146 °C
CCOc1cccc(-c2ccc(C3=CCN(S(=O)(=O)C4(C(=O)O)CCOCC4)CC3)cc2C)c1	203 to 205 °C
O=C(O)c1cc(NCc2c(F)c(F)c(C(F)(F)F)c(F)c2F)ccc1[N+](=O)[O-]	121 °C
OC(CCl)(Cc1ccccc1Cl)c1ccc(Cl)cc1 (stereo unspecified)	64 to 69 °C
NS(=O)(=O)c1cncc([N+](=O)[O-])c1	168 °C
COCCOc1cc2ncnc(Cl)c2cc1OCCOC	108 to 109 °C
C=Cc1cc(CCNc2ncnc3c(F)ccc(F)c23)ccc1Oc1cc(C(F)(F)F)ccn1	86 °C
Cn1ncnc1COc1nc2c(-c3ccccc3)nncc2cc1-c1ccccc1	222 to 223 °C
N#Cc1cc(O)cc2nc(-c3ccc(O)c(F)c3)oc12	308 to 310 °C
Cc1ccc(N2N=C3c4cc(OCCCN(C)C)ccc4CCC3CC2=O)cc1 (stereo unspecified)	159 to 162 °C
O=S(=O)(Cc1ccccc1)c1ccc(Cl)cc1	148 °C
